# Assay results taken from patent US20190127381A1, “SUBSTITUTED FUSED PYRIMIDINONE COMPOUNDS” (TORRENT PHARMACEUTICALS LIMITED, priority 2016, published 2019).
# What was measured:
# [1] = target: T1, purified recombinant human PI3K enzyme δ (Homo sapiens, UniProt O00329); experiment: Inhibition of PI3-Kinase enzymatic activity (HTRF enzyme assay), δ; assay type: biochemical; details: 1 μM compound; PI3K δ 50 ng/well; PIP2 10 μM; ATP 200 μM; read-out: Percentage inhibition of PI3K activity, δ
# T1 construct: purchased Invitrogen, USA
# T1 sequence (O00329 whole entry): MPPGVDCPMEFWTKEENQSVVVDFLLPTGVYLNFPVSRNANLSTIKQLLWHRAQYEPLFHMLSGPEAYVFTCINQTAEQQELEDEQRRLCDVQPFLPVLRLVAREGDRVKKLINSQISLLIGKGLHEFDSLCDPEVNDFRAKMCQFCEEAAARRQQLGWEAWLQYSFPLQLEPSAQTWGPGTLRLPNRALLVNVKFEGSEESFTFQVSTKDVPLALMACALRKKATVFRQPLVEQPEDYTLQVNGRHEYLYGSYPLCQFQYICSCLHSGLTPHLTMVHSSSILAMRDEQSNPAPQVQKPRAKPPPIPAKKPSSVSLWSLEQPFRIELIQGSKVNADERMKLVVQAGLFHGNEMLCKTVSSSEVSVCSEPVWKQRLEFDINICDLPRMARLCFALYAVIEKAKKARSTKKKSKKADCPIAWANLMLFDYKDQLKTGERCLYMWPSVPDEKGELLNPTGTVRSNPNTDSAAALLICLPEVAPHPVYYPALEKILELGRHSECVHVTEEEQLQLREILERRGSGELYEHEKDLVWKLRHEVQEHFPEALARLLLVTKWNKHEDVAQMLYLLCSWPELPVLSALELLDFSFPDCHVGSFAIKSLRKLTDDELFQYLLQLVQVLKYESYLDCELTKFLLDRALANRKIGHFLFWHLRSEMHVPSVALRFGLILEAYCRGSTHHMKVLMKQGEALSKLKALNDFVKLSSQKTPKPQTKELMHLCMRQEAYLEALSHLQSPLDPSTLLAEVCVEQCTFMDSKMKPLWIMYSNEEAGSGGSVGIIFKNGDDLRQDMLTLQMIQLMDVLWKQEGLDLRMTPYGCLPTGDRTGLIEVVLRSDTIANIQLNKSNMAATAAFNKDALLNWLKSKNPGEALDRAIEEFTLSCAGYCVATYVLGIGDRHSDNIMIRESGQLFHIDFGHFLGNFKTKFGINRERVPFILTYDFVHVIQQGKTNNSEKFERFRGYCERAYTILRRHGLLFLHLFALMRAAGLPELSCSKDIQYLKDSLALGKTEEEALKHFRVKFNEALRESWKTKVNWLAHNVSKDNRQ
# T1 sequence (P27986 whole entry partner): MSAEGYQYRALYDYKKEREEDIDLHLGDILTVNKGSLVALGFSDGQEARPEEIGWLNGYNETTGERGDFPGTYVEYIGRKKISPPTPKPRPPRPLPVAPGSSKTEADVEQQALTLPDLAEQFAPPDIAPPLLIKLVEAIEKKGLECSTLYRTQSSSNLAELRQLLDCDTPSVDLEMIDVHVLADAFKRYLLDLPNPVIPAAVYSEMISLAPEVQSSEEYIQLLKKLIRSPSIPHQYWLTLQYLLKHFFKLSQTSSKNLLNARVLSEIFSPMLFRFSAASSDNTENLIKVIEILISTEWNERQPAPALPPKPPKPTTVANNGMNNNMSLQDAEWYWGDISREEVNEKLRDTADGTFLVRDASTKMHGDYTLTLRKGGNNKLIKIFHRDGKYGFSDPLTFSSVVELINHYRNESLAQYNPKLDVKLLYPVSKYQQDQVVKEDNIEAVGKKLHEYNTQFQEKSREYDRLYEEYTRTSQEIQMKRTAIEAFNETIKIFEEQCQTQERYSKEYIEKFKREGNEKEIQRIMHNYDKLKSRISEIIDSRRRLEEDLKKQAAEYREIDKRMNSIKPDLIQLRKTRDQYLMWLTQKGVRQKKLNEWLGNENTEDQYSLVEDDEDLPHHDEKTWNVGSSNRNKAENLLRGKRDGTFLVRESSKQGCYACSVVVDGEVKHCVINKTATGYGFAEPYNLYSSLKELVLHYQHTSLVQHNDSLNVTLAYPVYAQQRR
# Description: (§1) Inhibition of PI3-Kinase enzymatic activity was determined using a homogeneous time-resolved fluorescence (HTRF) kit from Eurofins. 1 μM of Compounds of present invention were premixed with DMSO. The experiment was initiated by mixing 1.0% DMSO as vehicle/compounds with purified recombinant human PI3K enzyme {δ (50 ng/well); γ (100 ng/well)} (Invitrogen, USA) and substrate (PIP2, 10 μM) in the wells and incubation for 15 min at room temperature. There after ATP was added (δ at 200 μM, and γ at 50 μM) in to the wells containing reaction mixture, followed by re-incubation for 30 minutes at room temperature. Reaction was terminated by addition of a stopping solution and was further incubated for 4 hours at room temperature before reading using Envision multimode reader (Perkin Elmer). Percentage inhibition of PI3K activity was calculated by determining ratio of specific europium 665 nm energy transfer signal to reference 615 nm signals.
# [2] = target: T2, purified recombinant human PI3K enzyme γ (Homo sapiens, UniProt P48736); experiment: Inhibition of PI3-Kinase enzymatic activity (HTRF enzyme assay), γ; assay type: biochemical; details: 1 μM compound; PI3K γ 100 ng/well; PIP2 10 μM; ATP 50 μM; read-out: Percentage inhibition of PI3K activity, γ
# T2 construct: purchased Invitrogen, USA
# T2 sequence (P48736 whole entry): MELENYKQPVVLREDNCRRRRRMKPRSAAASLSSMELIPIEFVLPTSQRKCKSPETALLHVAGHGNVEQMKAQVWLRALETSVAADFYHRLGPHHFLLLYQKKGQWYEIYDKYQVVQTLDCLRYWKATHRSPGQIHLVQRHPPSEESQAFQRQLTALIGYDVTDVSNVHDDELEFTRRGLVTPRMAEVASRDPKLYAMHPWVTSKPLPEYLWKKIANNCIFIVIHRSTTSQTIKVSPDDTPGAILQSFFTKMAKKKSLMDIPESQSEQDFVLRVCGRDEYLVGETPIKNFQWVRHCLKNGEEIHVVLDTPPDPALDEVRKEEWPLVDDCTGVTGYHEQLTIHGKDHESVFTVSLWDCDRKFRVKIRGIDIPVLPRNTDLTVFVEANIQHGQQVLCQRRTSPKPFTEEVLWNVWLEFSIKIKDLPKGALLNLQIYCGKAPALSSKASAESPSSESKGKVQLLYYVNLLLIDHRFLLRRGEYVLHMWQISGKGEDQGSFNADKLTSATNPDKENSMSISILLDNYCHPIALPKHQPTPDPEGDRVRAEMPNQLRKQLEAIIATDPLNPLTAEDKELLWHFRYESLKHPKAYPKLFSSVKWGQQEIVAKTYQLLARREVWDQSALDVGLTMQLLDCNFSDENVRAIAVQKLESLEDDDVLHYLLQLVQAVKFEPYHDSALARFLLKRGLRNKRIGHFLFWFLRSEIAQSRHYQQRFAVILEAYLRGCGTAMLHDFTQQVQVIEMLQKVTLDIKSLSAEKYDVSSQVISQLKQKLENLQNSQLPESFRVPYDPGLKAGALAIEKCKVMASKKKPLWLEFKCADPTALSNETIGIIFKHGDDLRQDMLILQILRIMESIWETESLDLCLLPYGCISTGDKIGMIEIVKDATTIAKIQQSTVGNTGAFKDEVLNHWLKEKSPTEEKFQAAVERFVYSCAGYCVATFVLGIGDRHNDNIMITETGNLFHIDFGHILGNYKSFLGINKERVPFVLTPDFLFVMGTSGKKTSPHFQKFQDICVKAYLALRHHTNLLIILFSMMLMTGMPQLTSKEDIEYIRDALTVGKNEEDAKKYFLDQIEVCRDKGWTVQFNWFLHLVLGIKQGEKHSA
# Description: as §1
Structure (SMILES),inhibition at 1 µM [1],inhibition at 1 µM [2]
"Cc1ccc(C)n1-n1c(Cn2nc(-c3ccc(O)c4c3CC(C)(C)O4)c3c(N)ncnc32)nc2cccc(-c3cccn3C)c2c1=O [compound 77, 2-{[4-amino-3-(7-hydroxy-2,2-dimethyl-2,3-dihydro-1-benzofuran-4-yl)-1H-pyrazolo[3,4-d]pyrimidin-1-yl]methyl}-3-(2,5-dimethyl-1H-pyrrol-1-yl)-5-(1-methyl-1H-pyrrol-2-yl)quinazolin-4(3H)-one]",80 to 100%,80 to 100%
"CCn1cc(-c2cccc3nc(Cn4nc(-c5ccc(O)c6c5CC(C)(C)O6)c5c(N)ncnc54)n(-n4cccc4)c(=O)c23)cn1 [compound 45, 2-{[4-amino-3-(7-hydroxy-2,2-dimethyl-2,3-dihydro-1-benzofuran-4-yl)-1H-pyrazolo[3,4-d]pyrimidin-1-yl]methyl}-5-(1-ethyl-1H-pyrazol-4-yl)-3-(1H-pyrrol-1-yl)quinazolin-4(3H)-one]",80 to 100%,60 to 80%
"Cc1ccc(C)n1-n1c(Cn2nc(-c3ccc(O)c4c3CC(C)(C)O4)c3c(N)ncnc32)nc2cccc(-c3ccnn3C)c2c1=O [compound 41, 2-{[4-amino-3-(7-hydroxy-2,2-dimethyl-2,3-dihydro-1-benzofuran-4-yl)-1H-pyrazolo[3,4-d]pyrimidin-1-yl]methyl}-3-(2,5-dimethyl-1H-pyrrol-1-yl)-5-(1-methyl-1H-pyrazol-5-yl)quinazolin-4(3H)-one]",80 to 100%,80 to 100%
"Cc1ccc(C)n1-n1c(Cn2nc(-c3ccc(O)c4c3CC(C)(C)O4)c3c(N)ncnc32)nc2cccc(C#CC3CC3)c2c1=O [compound 43, 2-{[4-amino-3-(7-hydroxy-2,2-dimethyl-2,3-dihydro-1-benzofuran-4-yl)-1H-pyrazolo[3,4-d]pyrimidin-1-yl]methyl}-5-(cyclopropylethynyl)-3-(2,5-dimethyl-1H-pyrrol-1-yl)quinazolin-4(3H)-one]",80 to 100%,80 to 100%
"Cc1ccc(C)n1-n1c(Cn2nc(-c3ccc(O)c4c3CC(C)(C)O4)c3c(N)ncnc32)nc2cccc(C#CCN3CCOCC3)c2c1=O [compound 80, 2-{[4-amino-3-(7-hydroxy-2,2-dimethyl-2,3-dihydro-1-benzofuran-4-yl)-1H-pyrazolo[3,4-d]pyrimidin-1-yl]methyl}-3-(2,5-dimethyl-1H-pyrrol-1-yl)-5-[3-(morpholin-4-yl)prop-1-yn-1-yl]quinazolin-4(3H)-one]",80 to 100%,60 to 80%

# Results, then the molecule that gave them:
inhibition at 1 µM [1],inhibition at 1 µM [2],Structure (SMILES)
80 to 100%,60 to 80%,"Cc1ccccc1C1(n2c(Cn3nc(-c4ccc(O)c5c4CC(C)(C)O5)c4c(N)ncnc43)nc3cccc(C)c3c2=O)CC1 [compound 56, 2-{[4-amino-3-(7-hydroxy-2,2-dimethyl-2,3-dihydro-1-benzofuran-4-yl)-1H-pyrazolo[3,4-d]pyrimidin-1-yl]methyl}-5-methyl-3-[1-(2-methylphenyl)cyclopropyl]quinazolin-4(3H)-one]"
80 to 100%,80 to 100%,"Cc1ccc(C2(n3c(Cn4nc(-c5ccc(O)c6c5CC(C)(C)O6)c5c(N)ncnc54)nc4cccc(C#CCO)c4c3=O)CC2)cc1 [compound 37, 2-{[4-amino-3-(7-hydroxy-2,2-dimethyl-2,3-dihydro-1-benzofuran-4-yl)-1H-pyrazolo[3,4-d]pyrimidin-1-yl]methyl}-5-(3-hydroxyprop-1-yn-1-yl)-3-[1-(4-methylphenyl)cyclopropyl]quinazolin-4(3H)-one]"
80 to 100%,80 to 100%,"Cn1cccc1-c1cccc2nc(Cn3nc(-c4ccc(O)c5c4CC(C)(C)O5)c4c(N)ncnc43)n(C3(c4ccsc4)CC3)c(=O)c12 [compound 75, 2-{[4-amino-3-(7-hydroxy-2,2-dimethyl-2,3-dihydro-1-benzofuran-4-yl)-1H-pyrazolo[3,4-d]pyrimidin-1-yl]methyl}-5-(1-methyl-1H-pyrrol-2-yl)-3-[1-(thiophen-3-yl)cyclopropyl]quinazolin-4(3H)-one]"
